Assay results reported in article PMC10178848, “Modulating fast skeletal muscle contraction protects skeletal muscle in animal models of Duchenne muscular dystrophy” (The Journal of Clinical Investigation, 2023).

System: mdx mouse EDL muscle
Test: Phosphoprotein array analysis (Cell Signaling Phospho Antibody Array)
Details: T vs C
Description: mdx mouse EDL muscle was prepared for ex vivo analysis as described (n = 5). Muscles were incubated for 1 hour with DMSO or EDG-5506 (5 μM) and then flash frozen in liquid nitrogen. Tissue preparation and analysis were performed as recommended by the manufacturer (Cell Signaling Phospho Antibody Array, Full Moon Biosystems).

SMILES: O=c1ccc(-c2cnc(OCC(F)(F)F)nc2)nn1Cc1cncc(F)c1 [EDG-5506]
- Fold Change between Samples T/C: Tau (Phospho-Ser396): 0.90
- Fold Change between Samples T/C: VEGFR2 (Phospho-Tyr1175): 0.84
- Fold Change between Samples T/C: Zap-70 (Phospho-Tyr319): 1.04
- Fold Change between Samples T/C: c-Jun (Phospho-Ser73): 0.91
- Fold Change between Samples T/C: p44/42 MAP Kinase (Phospho-Tyr204): 0.88
- Fold Change between Samples T/C: p53 (Phospho-Ser15): 0.20
- Ratio (T/C): 4E-BP1 (Phospho-Thr45) to total 4E-BP1 (Ab-45) (phospho/total): 0.8337
- Ratio (T/C): 14-3-3 theta/tau (Phospho-Ser232) to total 14-3-3 zeta/delta (Ab-232) (phospho/total): 0.9814
- Ratio (T/C): ACC1 (Phospho-Ser80) to total ACC1 (Ab-80) (phospho/total): 0.9544
- Ratio (T/C): AKT1 (Phospho-Ser473) to total AKT1 (Ab-308) (phospho/total): 0.8575
- Ratio (T/C): AKT1S1 (Phospho-Thr246) to total AKT1S1 (Ab-246) (phospho/total): 1.16
- Ratio (T/C): AMPKbeta1 (Phospho-Ser182) to total AMPKbeta1 (Ab-182) (phospho/total): 0.902
- Ratio (T/C): ASK1 (Phospho-Ser966) to total ASK1 (Ab-966) (phospho/total): 0.799
- Ratio (T/C): ATF2 (Phospho-Ser62/44) to total ATF2 (Ab-62/44) (phospho/total): 0.3856
- Ratio (T/C): Abl1 (Phospho-Thr754/735) to total Abl1 (Ab-754/735) (phospho/total): 1.124
- Ratio (T/C): Actin Pan(a/b/g) (Phospho-Tyr55/53) to total Actin Pan(a/b/g) (Ab-55/53) (phospho/total): 0.9642
- Ratio (T/C): B-RAF (Phospho-Ser446) to total B-RAF (Ab-598) (phospho/total): 0.9669
- Ratio (T/C): BAX (Phospho-Thr167) to total Bax (phospho/total): 0.8854
- Ratio (T/C): BCL-XL (Phospho-Ser62) to total BCL-XL (Ab-47) (phospho/total): 0.5743
- Ratio (T/C): BID (Phospho-Ser78) to total BID (Ab-78) (phospho/total): 0.7661
- Ratio (T/C): BLNK (Phospho-Tyr96) to total BLNK (Ab-96) (phospho/total): 0.53
- Ratio (T/C): BRCA1 (Phospho-Ser1423) to total BRCA1 (Ab-1524) (phospho/total): 0.7749
- Ratio (T/C): CDC25C (Phospho-Ser216) to total CDC25C (Ab-216) (phospho/total): 0.4323
- Ratio (T/C): CDK1/CDC2 (Phospho-Tyr15) to total CDK1/CDC2 (Ab-15) (phospho/total): 0.7557
- Ratio (T/C): CREB (Phospho-Ser133) to total CREB (Ab-133) (phospho/total): 1.041
- Ratio (T/C): CaMK2-beta/gamma/delta (Phospho-Thr287) to total CaMK2-beta/gamma/delta (Ab-287) (phospho/total): 0.6524
- Ratio (T/C): CaMK2A (Phospho-Thr286) to total CaMK2A (Ab-286) (phospho/total): 0.848
- Ratio (T/C): Caspase 1 (Phospho-Ser376) to total Caspase 1 (Ab-376) (phospho/total): 0.6605
- Ratio (T/C): Caspase 8 (Phospho-Ser347) to total Caspase 8 (Ab-347) (phospho/total): 1.051
- Ratio (T/C): Caspase 9 (Phospho-Ser196) to total Caspase 9 (Ab-196) (phospho/total): 0.4054
- Ratio (T/C): Catalase (Phospho-Tyr385) to total Catalase (Ab-385) (phospho/total): 0.7422
- Ratio (T/C): Catenin beta (Phospho-Thr41/Ser45) to total Catenin beta (Ab-37) (phospho/total): 0.6858
- Ratio (T/C): Chk1 (Phospho-Ser286) to total Chk1 (Ab-286) (phospho/total): 0.7615
- Ratio (T/C): Chk2 (Phospho-Thr68) to total Chk2 (Ab-68) (phospho/total): 0.4403
- Ratio (T/C): CrkII (Phospho-Tyr221) to total CrkII (Ab-221) (phospho/total): 0.7162
- Ratio (T/C): Cyclin D1 (Phospho-Thr286) to total Cyclin D1 (Ab-286) (phospho/total): 1.068
- Ratio (T/C): Cyclin E1 (Phospho-Thr77) to total Cyclin E1 (Ab-77) (phospho/total): 0.8189
- Ratio (T/C): DARPP-32 (Phospho-Thr34) to total DARPP-32 (Ab-34) (phospho/total): 0.8988
- Ratio (T/C): EEF2 (Phospho-Thr56) to total EEF2 (Ab-56) (phospho/total): 1.324
- Ratio (T/C): EGFR (Phospho-Tyr869) to total EGFR (Ab-1172) (phospho/total): 1.314
- Ratio (T/C): EGFR (Phospho-Tyr1172) to total EGFR (Ab-1172) (phospho/total): 0.9484
- Ratio (T/C): Elk1 (Phospho-Ser383) to total Elk1 (Ab-389) (phospho/total): 0.8083
- Ratio (T/C): FAK (Phospho-Ser910) to total FAK (Ab-910) (phospho/total): 0.6171
- Ratio (T/C): FGFR1 (Phospho-Tyr654) to total FGFR1 (Ab-766) (phospho/total): 1.2323
- Ratio (T/C): FKHRL1/FOXO3A (Phospho-Ser253) to total FKHRL1/FOXO3A (Ab-253) (phospho/total): 0.5092
- Ratio (T/C): FOXO1/3/4-pan (Phospho-Thr24/32) to total FOXO1/3/4-pan (Ab-24/32) (phospho/total): 0.8412
- Ratio (T/C): GRK2 (Phospho-Ser29) to total GRK2 (Ab-29) (phospho/total): 0.6549
- Ratio (T/C): GSK3 beta (Phospho-Ser9) to total GSK3 beta (phospho/total): 0.6837
- Ratio (T/C): HDAC1 (Phospho-Ser421) to total HDAC1 (Ab-421) (phospho/total): 1.576
- Ratio (T/C): HDAC2 (Phospho-Ser394) to total HDAC2 (Ab-394) (phospho/total): 0.8716
- Ratio (T/C): HER2 (Phospho-Tyr1221/Tyr1222) to total HER2 (Ab-1221/1222) (phospho/total): 0.7289
- Ratio (T/C): HER2 (Phospho-Tyr1248) to total HER2 (Ab-1221/1222) (phospho/total): 0.9858
- Ratio (T/C): HSP27 (Phospho-Ser82) to total HSP27 (Ab-82) (phospho/total): 1.177
- Ratio (T/C): HSP90B (Phospho-Ser226) to total HSP90B (Ab-254) (phospho/total): 0.9521
- Ratio (T/C): IKK alpha/beta (Phospho-Ser180/181) to total IKK alpha/beta (Ab-180/181) (phospho/total): 0.9407
- Ratio (T/C): IKK-beta (Phospho-Tyr188) to total IKK-beta (Ab-199) (phospho/total): 0.6267
- Ratio (T/C): IKK-beta (Phospho-Tyr199) to total IKK-beta (Ab-199) (phospho/total): 0.8262
- Ratio (T/C): IKK-gamma (Phospho-Ser31) to total IKK-gamma (Ab-31) (phospho/total): 1.02
- Ratio (T/C): IL-4R/CD124 (Phospho-Tyr497) to total IL-4R/CD124 (Ab-497) (phospho/total): 0.9976
- Ratio (T/C): IL-10R-alpha (Phospho-Tyr496) to total IL-10R-alpha (Ab-496) (phospho/total): 0.6514
- Ratio (T/C): IRS-1 (Phospho-Ser312) to total IRS-1 (Ab-312) (phospho/total): 0.9305
- Ratio (T/C): IkB-alpha (Phospho-Ser32/36) to total IkB-alpha (Ab-32/36) (phospho/total): 1.258
- Ratio (T/C): IkB-epsilon (Phospho-Ser22) to total IkB-epsilon (Ab-22) (phospho/total): 0.98
